One data set concerns Puccinia recondita. Briefly: In vivo preventive test on Puccinia recondita (brown rust on wheat). The following applies: for Efficacy (Table C2) / protection: in very similar conditions; for Efficacy (Table C2): prior-art analogues; for Efficacy at 100 ppm (Table C1) / Efficacy at 500 ppm (Table C1): very similar conditions, formulated in DMF with 2% of alkylarylpolyglycolether. As for the experimental part: Example C: In Vivo Preventive Test on Puccinia recondita (Brown Rust on Wheat) […]
The young plants of wheat are treated by spraying the active ingredient prepared as described above. […]
After 24 hours, the plants are contaminated by spraying the leaves with an aqueous suspension of Puccinia recondita spores. The contaminated wheat plants are incubated for 24 hours at 20° C. and at 100% relative humidity and then for 10 days at 20° C. and at 70-80% relative humidity.
The test is evaluated 11 days after the inoculation. 0% means an efficacy which corresponds to that of the control plants while an efficacy of 100% means that no disease is observed.

Data set [1] in a line: log P by HPLC on reversed-phase column (C 18), EEC Directive 79/831 Annex V.A8. The format is physicochemical. The following applies: HPLC C 18, 40° C., 0.1% aqueous formic acid and acetonitrile, gradient 10% to 90% acetonitrile; for chromatographic logP: reversed-phase HPLC column (C 18). The procedure:
In table 1, the log P values were determined in accordance with EEC Directive 79/831 Annex V.A8 by HPLC (High Performance Liquid Chromatography) on a reversed-phase column (C 18), using the method described below: Temperature: 40° C.; Mobile phases: 0.1% aqueous formic acid and acetonitrile; linear gradient from 10% acetonitrile to 90% acetonitrile. Calibration was carried out using unbranched alkan-2-ones (comprising 3 to 16 carbon atoms) with known log P values (determination of the log P values by the retention times using linear interpolation between two successive alkanones). lambda-max-values were determined using UV-spectra from 200 nm to 400 nm and the peak values of the chromatographic signals.

Where [2] appears, read: dose of 500 and 125 ppm, analogues of WO2009/016222 and WO2008/037789.
Setting [3] is: dose of 500 and 100 ppm, analogues of WO2012/059497.

On to `Cc1nn(C)c(F)c1C(=O)N(Cc1cn(-c2ccccc2)c2ccccc12)C1CC1` [13 from WO-2009/016222, N-cyclopropyl-5-fluoro-1,3-dimethyl-N-[(1-phenyl-1H-indol-3-yl)methyl]-1H-pyrazole-4-carboxamide], for which the results for the “Efficacy (Table C2)” value in the data set on Puccinia recondita (dose 125 ppm) and in the data set with Puccinia recondita (dose 500 ppm) were 17% and 78%, respectively. Besides, the protection result in the data set with Puccinia recondita (setting [2]) was “good (at least 70%) to no protection”.

In the case of `Cc1ccc(-c2cc(C(F)(F)F)cnc2CN(C(=O)c2c(C(F)F)nn(C)c2F)C2CC2)o1` [I.33], in data set [1], the logP (as a rule, the decadic logarithm of the partition coefficient of the neutral form, usually between octanol and water) was 3.69.

As to `Cn1cc(C(=O)N(Cc2cc(Br)cnc2Sc2nccs2)C2CC2)c(C(F)F)n1` [Example I.58], the logP in data set [1] was 3.09.

For `Cn1cc(C(=O)N(Cc2ncc(C(F)(F)F)cc2-c2csc3ccccc23)C2CC2)c(C(F)F)n1` [I.42], the logP in data set [1] amounted to 3.92.

`Cn1nc(C(F)F)c(C(=O)N(Cc2cc(-c3ccc(Cl)cc3)no2)C2CC2)c1F` [153 from WO2012/059497, N-{[3-(4-chlorophenyl)-1,2-oxazol-5-yl]methyl}-N-cyclopropyl-3-(difluoromethyl)-5-fluoro-1-methyl-1H-pyrazole-4-carboxamide]: in the data set on Puccinia recondita, the “Efficacy at 100 ppm (Table C1)” value was determined as 10% and the “Efficacy at 500 ppm (Table C1)” value was 80%. The protection result with Puccinia recondita (setting [3]) is on record as “good (at least 80%) to no protection”.

Turning to `Cn1cc(C(=O)N(Cc2ccc(Oc3ccccc3)nc2)C2CC2)c(C(F)F)n1` [36 from WO-2008/037789, N-cyclopropyl-3-(difluoromethyl)-1-methyl-N-[(6-phenoxypyridin-3-yl)methyl]-1H-pyrazole-4-carboxamide], the “Efficacy (Table C2)” value in the data set on Puccinia recondita (dose 125 ppm) and in the data set with Puccinia recondita (dose 500 ppm) was 0% in each case. In the data set with Puccinia recondita (setting [2]), the protection result is reported as “good (at least 70%) to no protection”.

With `Cc1nc(-c2ccc(Cl)cc2)sc1CN(C(=O)c1c(C(F)F)nn(C)c1F)C1CC1` [167 from WO2012/059497, N-{[2-(4-chlorophenyl)-4-methyl-1,3-thiazol-5-yl]methyl}-N-cyclopropyl-3-(difluoromethyl)-5-fluoro-1-methyl-1H-pyrazole-4-carboxamide], in the data set on Puccinia recondita, the “Efficacy at 100 ppm (Table C1)” value is recorded as 0% and the “Efficacy at 500 ppm (Table C1)” value was determined as 0%. Besides, in the data set on Puccinia recondita (setting [3]), the protection result is recorded as “good (at least 80%) to no protection”.

Molecule `Cn1nc(C(F)F)c(C(=O)N(Cc2ncc(C(F)(F)F)cc2-c2csc3ccccc23)C2CC2)c1F` [I.20] yielded a logP in data set [1] of 4.46.

Molecule `Cn1cc(C(=O)N(Cc2ncc(C(F)(F)F)cc2-c2ccnc3cc(Cl)ccc23)C2CC2)c(C(F)F)n1` [I.45] gave a lipophilicity (logP) in data set [1] of 3.27.

In turn, `Cc1ccc(-c2ccsc2CN(C(=O)c2cn(C)cc2C(F)(F)F)C2CC2)s1` [I.09] came in with a lipophilicity (logP) in data set [1] of 4.18.

Consider `Cn1cc(C(=O)N(Cc2cn(-c3ccccc3)c3ccccc23)C2CC2)c(C(F)F)n1` [18 from WO-2009/016222, N-cyclopropyl-3-(difluoromethyl)-1-methyl-N-[(1-phenyl-1H-indol-3-yl)methyl]-1H-pyrazole-4-carboxamide], for which the “Efficacy (Table C2)” value with Puccinia recondita (dose 125 ppm) and in the data set on Puccinia recondita (dose 500 ppm) was 0% each time. For the same molecule, the protection entry with Puccinia recondita (setting [2]) is “good (at least 70%) to no protection”.

In data set [1], `Cc1ccc(-c2ccsc2CN(C(=O)c2nn(C)nc2C(F)F)C2CC2)s1` [I.07] returned a lipophilicity (logP) of 4.11.

The molecule `Cn1cc(C(=O)N(Cc2ncc(C(F)(F)F)cc2-c2ccco2)C2CC2)c(C(F)F)n1` [I.40] yielded a logP in data set [1] of 3.29.

`CC(=O)c1ccc(-c2cc(C(F)(F)F)cnc2CN(C(=O)c2c(C(F)F)nn(C)c2F)C2CC2)s1` [I.24]: in data set [1], the logP came out at 3.48.

`Cc1ccc(-c2ccsc2CN(C(=O)c2ccsc2Br)C2CC2)s1` [I.08] displayed a logP in data set [1] of 4.69.

On to `Cc1ccsc1-c1cc(C(F)(F)F)cnc1CN(C(=O)c1c(C(F)F)nn(C)c1F)C1CC1` [I.34], for which, in data set [1], the lipophilicity (logP) amounted to 4.11.

In the case of `Cn1cc(C(=O)N(Cc2ncc(C(F)(F)F)cc2-c2ccoc2)C2CC2)c(C(F)F)n1` [I.46], in data set [1], the logP came out at 3.15.

In data set [1], `Cc1cscc1-c1cc(C(F)(F)F)cnc1CN(C(=O)c1c(C(F)F)nn(C)c1F)C1CC1` [I.22] returned a lipophilicity (logP) of 4.12.

As to `Cn1nc(C(F)F)c(C(=O)N(Cc2nn(-c3ccccc3)cc2C2=CCOCC2)C2CC2)c1F` [I.02], the logP in data set [1] worked out at 3.26.

In data set [1], `Cn1cc(C(=O)N(Cc2ncc(C(F)(F)F)cc2-c2cccs2)C2CC2)c(C(F)F)n1` [I.39] displayed a lipophilicity (logP) of 3.46.

Molecule `Cn1cncc1-c1c(CN(C(=O)c2c(C(F)F)nn(C)c2F)C2CC2)sc2ccccc12` [I.48] displayed a lipophilicity (logP) in data set [1] of 1.66.

With `Cn1nc(C(F)F)c(C(=O)N(Cc2ncc(C(F)(F)F)cc2-c2ccsc2)C2CC2)c1F` [I.17, N-cyclopropyl-3-(difluoromethyl)-5-fluoro-1-methyl-N-{[3-(3-thienyl)-5-(trifluoromethyl)pyridin-2-yl]methyl}-1H-pyrazole-4-carboxamide], the chromatographic logP (commonly lipophilicity estimated from chromatographic retention) in data set [1] was found to be 3.67.

`Cn1nc(C(F)F)c(C(=O)N(Cc2sc3ccccc3c2-c2cncnc2)C2CC2)c1F` [I.54]: in data set [1], the logP was 2.76.

As to `Cc1noc(C)c1-c1c(CN(C(=O)c2c(C(F)F)nn(C)c2F)C2CC2)sc2ccccc12` [Example I.55], in data set [1], the lipophilicity (logP) is on record as 3.51.

For `Cc1ccc(-c2ccsc2CN(C(=O)c2sc(C)nc2C(F)F)C2CC2)s1` [I.06], the logP in data set [1] is listed as 4.08.

`Cn1ccc(-c2c(CN(C(=O)c3c(C(F)F)nn(C)c3F)C3CC3)sc3ccccc23)c1` [I.51] yielded a logP in data set [1] of 3.89.

Take `Cn1cc(C(=O)N(Cc2ncc(C(F)(F)F)cc2-c2cnc3ccccc3c2)C2CC2)c(C(F)F)n1` [I.44]: in data set [1], the logP was found to be 2.82.

`Cn1nc(C(F)F)c(C(=O)N(Cc2ncc(C(F)(F)F)cc2-c2ccoc2)C2CC2)c1F` [I.26]: the logP in data set [1] worked out at 3.48.

In data set [1], `CC(C)c1nc(-c2c(CN(C(=O)c3c(C(F)F)nn(C)c3F)C3CC3)sc3ccccc23)cs1` [I.49] returned a logP of 4.61.

As for `Cn1cc(C(=O)N(Cc2ncc(C(F)(F)F)cc2-c2coc3ccccc23)C2CC2)c(C(F)F)n1` [I.43], the logP in data set [1] turned out to be 3.73.

In turn, `Cn1nc(C(F)F)c(C(=S)N(Cc2ncc(C(F)(F)F)cc2-c2ccoc2)C2CC2)c1F` [I.36] gave a logP in data set [1] of 4.03.

Molecule `Cc1cc(C(=O)N(Cc2sccc2-c2ccc(C)s2)C2CC2)c(C)o1` [I.10] had a logP in data set [1] of 4.54.

On to `Cn1nc(C(F)F)c(C(=O)N(Cc2ncc(C(F)(F)F)cc2-c2cc3ccccc3s2)C2CC2)c1F` [I.25], for which the logP in data set [1] came to 4.73.

In data set [1], `Cn1nc(C(F)F)c(C(=S)N(Cc2ncc(C(F)(F)F)cc2-c2cnc3ccccc3c2)C2CC2)c1F` [I.35] had a lipophilicity (logP) of 3.90.

Consider `Cn1nc(C(F)F)c(C(=O)N(Cc2nn(-c3ccccc3)cc2C2CCOCC2)C2CC2)c1F` [I.04], for which, in data set [1], the logP is on record as 3.15.

Regarding `Cn1nc(C(F)F)c(C(=O)N(Cc2ncc(C(F)(F)F)cc2-c2cc3ccccc3nc2O)C2CC2)c1F` [I.28], the log partition coefficient (logP) in data set [1] is recorded as 2.76.

In data set [1], `Cc1occc1-c1c(CN(C(=O)c2c(C(F)F)nn(C)c2F)C2CC2)sc2ccccc12` [I.52] displayed a log partition coefficient (logP) of 4.20.

On to `Cn1nc(C(F)F)c(C(=O)N(Cc2ncc(C(F)(F)F)cc2-c2ccco2)C2CC2)c1F` [I.30], for which the logP in data set [1] amounted to 3.68.

On to `Cn1nc(C(F)F)c(C(=O)N(Cc2ncc(C(F)(F)F)cc2Cl)C2CC2)c1F` [N-{[3-chloro-5-(trifluoromethyl)pyridin-2-yl]methyl}-N-cyclopropyl-3-(difluoromethyl)-5-fluoro-1-methyl-1H-pyrazole-4-carboxamide], for which, in data set [1], the chromatographic logP is 3.35.

Molecule `Cc1csc(-c2cc(C(F)(F)F)cnc2CN(C(=O)c2c(C(F)F)nn(C)c2F)C2CC2)c1` [I.32] returned a logP in data set [1] of 4.27.

In turn, `Cn1cc(C(=O)N(Cc2cc(Br)cnc2Sc2cnc3ccccc3c2)C2CC2)c(C(F)F)n1` [Example I.57] came in with a logP in data set [1] of 3.27.

Consider `Cn1nc(C(F)F)c(C(=S)N(Cc2nn(-c3ccccc3)cc2-c2ccc3c(ccn3C)c2)C2CC2)c1F` [I.05], for which, in data set [1], the logP was 4.64.

As to `Cc1ccc(-c2ccsc2CNC2CC2)s1` [IIb.01, N-[(5-methyl-2,3′-bithiophen-2′-yl)methyl]cyclopropanamine], the chromatographic logP in data set [1] was 1.39.

In the case of `Cn1nc(C(F)F)c(C(=O)N(Cc2ncc(C(F)(F)F)cc2-c2ccc(Cl)s2)C2CC2)c1F` [I.18], the logP in data set [1] is 4.54.

On to `Cn1cc(C(=O)N(Cc2cc(Br)cnc2Oc2cnc3ccccc3c2)C2CC2)c(C(F)F)n1` [Example I.56], for which the lipophilicity (logP) in data set [1] was 3.09.

Turning to `Cc1cscc1-c1cc(C(F)(F)F)cnc1CN(C(=O)c1cn(C)nc1C(F)F)C1CC1` [I.38], the logP in data set [1] is 3.69.

In data set [1], `Cn1nc(C(F)F)c(C(=O)N(Cc2ncc(C(F)(F)F)cc2-c2cnc3ccccc3c2)C2CC2)c1F` [I.27] returned a log partition coefficient (logP) of 3.25.
